This note sets out measurements from US20170197938A1, “A QUINOLINE DERIVATIVE FOR THE TREATMENT OF INFLAMMATORY DISEASES AND AIDS” (ABIVAX, priority 2014, published 2017).

The test system of assay [1] is HIV-1. As to the kind of experiment: Inhibition of HIV-1 production in infected PBMCs (p24 ELISA). The note with it: Human immunodeficiency virus 1, PBMC, read-out: Activity (IC50). In kind it is cell-based. How it is done: Within this framework, the peripheral blood mononuclear cells (PBMCs) of healthy donors are isolated by centrifugation on a FICOLL gradient. The cells are then activated two days to a density of 1.5×10^6 cells/ml in RPMI plutamax medium supplemented with 10% fetal calf serum (FCS), 40 U/ml of IL2 and 5 μg/ml PHA, in an incubator at 37° C., 5% CO2.
A standard experiment using 96 plates to test 30 molecules in triplicates including positive and negative controls, is performed as follows:
PHA/IL2 activated PBMCs are washed with RPMI 10% FCS and resuspended at 1.5×10^6 cells/ml in RPMI glutamax 10% FCS, 40 U/ml I12. The cells are seeded in 96 wells (1.5 10^5 cells/well/100 μl). Viral infection is performed with 1 ng of AdaM/well. 100 μl of tested molecules at concentration of 20 μM are added to each well (10 μM final concentration). Virus production is determined by p24 antigen immunosorbent assays after 3 and 6 days of infection (Kit Innogenetics). Typically PBMCs are prepared from several healthy donors (around 11 different donors). […]
The efficacy of compound of formula (1) and of compound no 1 as disclosed in document WO 2012/080953 is measured by the HIV-specific enzyme-linked immunosorbent assay, p24 ELISA.
Drug efficacy is expressed as percent inhibition of the HIV p24 antigen in this rapid and sensitive assay.

The test system of assay [2] is miR-124. As to the kind of experiment: miR-124 expression in PBMCs treated with screened molecules (RT-qPCR, relative quantification). The format is cell-based, human. The note with it: for Fold-change compared to DMSO treated cells, Mean (miR-124 expression): PBMCs of healthy donors, 6 days treatment, quinoline derivative 5 μM, antiretroviral drugs 10 μM, mean of 4 or 5 donors; for effect on miR-124 expression in PBMCs (in words): antiretrovirals in four donors. The procedure:
For that purpose, Peripheral blood mononuclear cells (PBMCs) of several healthy donors have been isolated by centrifugation on a FICOLL™ gradient according to standard protocols.
Briefly, 60-70 mL of buffy-coat are poured in a flask of 175 cm^2, and the volume is adjusted to 300 mL using PBS in order to obtain a dilution of about 5-fold of the buffy cost. 38 mL of diluted Buffy are then added to Falcon™ tubes of 50 mL comprising 12 mL of FICOLL™ (Histopack-1077) at ambient temperature. The preparation is centrifugated for 30 minutes at 515 rcf at ambient temperature. The lymphocyte ring is recovered from the Falcon™ tube with a transfer pipette (Pastette®) and then washed with PBS using centrifugation for 10 minutes at 290 rcf and at ambient temperature until the supernatant becomes clear.
The cells are then resuspended at 37° C. to a density of 1.5×10^6 cells/mL in RPMI Glutamax medium (Life Technologies Ref 61870-010) supplemented with 10% fetal calf serum (FCS) (Thermo Fisher Ref SV30160.03) and without activation. Cells are incubated for 48 hours at 37° C. under 5% CO2.
Six-well plates are used for the screening. Within each well comprising 3.10^6 cell/4 ml RPMI supplemented with 10% fetal calf serum and 40 U/mL IL-2 (Peprotech Ref 200-02) are added screened molecules. 100% DMSO (4 μL) is added to the well and tested as a negative control.
Each tested condition is set up as described here below and the final corresponding volume is adjusted accordingly in the well: • 1) Quinoline derivative in 100% DMSO—(5 μM and final volume 4 μL) • 2) Antiretroviral drugs: Maraviroc, Efavirenz, Darunavir, AZT (10 μM for all—final volume 4 μL).
The wells are incubated for three days at 37° C. under 5% CO2. Medium is changed (Day 3) according to standard protocols. Briefly, plates are centrifugated at 290 rcf for 5 minutes and 3 mL of supernatant is removed. 3 mL of RPMI supplemented with 10% fetal calf serum and 40 U/mL IL-2 is then added with 3 μL of a stock solution of screened molecule at 5 mM in 100% DMSO or 3 μL of 100% DMSO as a negative control.
Cells are recovered within Falcon™ tubes of 15 mL, centrifugated at 290 rcf for 5 minutes, and then washed in 10 mL PBS and further centrifugated at 290 rcf for 5 minutes. Cells are then resuspended in 1 mL PBS and counted.
6×10^6 cells are recovered and centrifugated at 290 rcf for 5 minutes. The cell pellet is lysed in 300 μL of ML lysis buffer from the Macherey Nagel Nucleospin® miRNA extraction kit (Macherey Nagel Ref 740971), and further stored at −20° C.
5 μL of 2×10^8 copies/μL of spike-in control (Ce_miR-39 from QIAGEN®—reference 219610 of SEQ ID No 6) are added for each sample. The miRNA extraction is achieved using the protocol from Macherey Nagel Nucleospin® miRNA extraction kit using an elution volume for RNAs of 50 μL and miRNAs of 30 μL, and further stored at −20° C.
The reverse transcription step is followed for 12 μL of miRNA using the miScript RT II reverse transcription (RT) kit from QIAGEN® using the miScript HiSpec buffer, and further stored at −20° C.
The quantitative PCR step is achieved using the QIAGEN® miScript SYBR® Green PCR kit and miScript Primer Assays according to the manufacturer's protocol.
The reaction is repeated in triplicates in a 384-well plate according to the manufacturer's protocol on a LightCycler® […] Roche Real-Time PCR system. Cycling conditions are also set up according to the manufacturer's protocol:
From a dilution to the 1/10th in H2O for the miR-124 qPCR (Hs'miR-124a) or to the 1/100th for reference/housekeeping gene qPCR (Hs_miR-26a and Hs_miR-191, using miScript Primer Assays (Hs_miR-124a, Hs_miR-26a and Hs_miR-191 or QIAGEN®—references ms00006622, ms00029239 and ms00003682).
The analysis is achieved using relative quantification models without efficiency correction (2^−ΔΔCp) using the average of crossing points (Cp) values from triplicates of miR-124 and the average of the average of triplicates of miR-26a and miR-191. […]

As to `FC(F)(F)c1ccnc(Nc2ccc3c(OCCN4CCOCC4)ccc(Cl)c3n2)c1`, the IC50 in assay [1] came out at 62.3 µM.
As for `CC(C)CN(C[C@@H](O)[C@H](Cc1ccccc1)NC(=O)O[C@H]1CO[C@H]2OCC[C@H]21)S(=O)(=O)c1ccc(N)cc1` [Darunavir], in assay [2], the “Fold-change compared to DMSO treated cells, Mean (miR-124 expression)” value (“Fold-change” below) is given as 1.08 and the “effect on miR-124 expression in PBMCs (in words)” value (“effect on miR-124 expression” for short) is “none of the known antiretroviral (Maraviroc, Effavirenz, Darunavir or AZT) has any significant effect”.
On to `FC(F)(F)c1ccnc(Nc2ccc3cc(OCCN4CCOCC4)cc(Cl)c3n2)c1` [Compound of formula (1), 8-chloro-6-(2-morpholinoethoxy)-N-(4-(trifluoromethyl)pyridin-2-yl)quinolin-2-amine], for which, in assay [2], the “Fold-change” value amounted to 32.04 and the “effect on miR-124 expression” value is listed as “up-regulate the expression levels of miR-124”. The 50% inhibitory concentration (IC50) in assay [1] amounted to 0.43 µM.
In the case of `Cc1cn([C@H]2C[C@H](N=[N+]=[N-])[C@@H](CO)O2)c(=O)[nH]c1=O` [AZT], in assay [2], the “Fold-change” value stood at 0.90 and the “effect on miR-124 expression” value is listed as “none of the known antiretroviral (Maraviroc, Effavirenz, Darunavir or AZT) has any significant effect”.
Consider Maraviroc, for which, in assay [2], the “Fold-change” value stood at 0.73 and the “effect on miR-124 expression” value is “none of the known antiretroviral (Maraviroc, Effavirenz, Darunavir or AZT) has any significant effect”.
Turning to `O=C1Nc2ccc(Cl)cc2[C@@](C#CC2CC2)(C(F)(F)F)O1` [Effavirenz, Efavirenz], in assay [2], the “Fold-change” value was determined as 0.46 and the “effect on miR-124 expression” value is “none of the known antiretroviral (Maraviroc, Effavirenz, Darunavir or AZT) has any significant effect”.
